melting point	SMILES
161 °C	CC1Cc2ccccc2N1NC(=O)c1ccc(Cl)c(S(N)(=O)=O)c1 (configuration not stated)
98 to 101 °C	c1ccc(C(OC[C@H]2CO2)(c2ccccc2)c2ccccc2)cc1
300 °C	NCc1ccc(C(=O)O)cc1
45 to 47 °C	Nc1cccc(COc2ccccc2)c1
-8 °C	CCCCCCCCCCCCC(C)C
247 °C	COC(=O)C1=C(C)NC(=S)NC1c1cccc([N+](=O)[O-])c1 (configuration not stated)
3 °C	CCC(O)CN (configuration not stated)
150 to 152 °C	Cn1nc(-c2ccc(Cl)cc2)cc1N
222 °C	CC(C)CC1Nc2cc(Cl)c(S(N)(=O)=O)cc2S(=O)(=O)N1 (configuration not stated)
131 °C	N#CCCN1C(=O)COc2ccc(Cl)cc21
-70 °C	CCCCCCCCOC(=O)CCCCC(=O)OCCCCCCCC
222 to 223 °C	O=C1c2ccccc2-c2ccc([N+](=O)[O-])cc21
117 °C	CS(=O)(=O)CC(=O)O
169 to 170 °C	COc1cc2c(cc1OC)C(c1cc(Cl)ccc1[N+](=O)[O-])=NCC2
197 to 200 °C	Cc1cc(Sc2nnc(N)s2)c2ccccc2n1
58 °C	COc1cc(C)c(S(=O)(=O)Cl)c(C)c1C
107 °C	CC(=O)c1cn(C)c2ccccc12
19 °C	CCC(=O)c1cccc(C(F)(F)F)c1
153 °C	CCOC(=O)c1c(SC)nn(C(=O)c2cccc([N+](=O)[O-])c2)c1N
215 °C	O=C1NN=C(C(F)(F)F)C1=NNc1ccc(Cl)cc1
178 to 184 °C	CC1(C)NC(=CC(=O)c2ccccc2)C(C)(C)N1O
227 °C	O/N=C1/CC(c2ccccc2)Cc2ccncc21 (configuration not stated)

melting point	SMILES
300 °C	NC(CCc1ccccc1)C(=O)O (single isomer, unassigned; (-))
18 °C	CCCCCCC=CCC(=O)O
228 °C	CN(C)C(=O)C(CCN1CCC(O)(c2ccc(Cl)cc2)CC1)(c1ccccc1)c1ccccc1
96 °C	O=Cc1cc(Cl)cc(Cl)c1O
89 °C	CCCCCOC(=O)COc1cc(N2C(=O)C3=C(CCCC3)C2=O)c(F)cc1Cl
40 to 42 °C	Brc1nc2ccccc2s1
-165 °C	CCC(C)S (configuration not stated)
84 °C	O=C(NC(=O)C(F)(F)F)C(F)(F)F
181 °C	CC(CC(=O)O)C1CCC2C3C=CC4CC(O)CCC4(C)C3CC(O)C12C (configuration not stated)
130 °C	COC(=O)c1ccc2cc(OC)ccc2c1
115 °C	CC(C)(Oc1ccc(C2CC2(Cl)Cl)cc1)C(=O)O (configuration not stated)
60 °C	Cc1ccc(I)cc1[N+](=O)[O-]
111 to 113 °C	CCOC(=O)c1c(C)nsc1N
213 to 217 °C	CCOC(=O)c1[nH]c2cc(Cl)cc(Cl)c2c1C=O
243 to 245 °C	O=C(O)c1c[nH]cn1
98 °C	c1cnc(N2CCN(Cc3ccc4c(c3)OCO4)CC2)nc1
97 °C	CC(C)(C)OC(=O)N[C@H](CO)Cc1ccccc1
247 °C	O=C(Nc1ccc(Cl)c(Cl)c1)c1cc(Cl)ccc1O
75 to 77 °C	CCOC(=O)CC(=O)c1cccc([N+](=O)[O-])c1
68 to 69 °C	CNCc1ccc(-c2ccsc2)cc1
187 to 189 °C	O=S(=O)(c1ccc(N=C=S)cc1)c1ccc(N=C=S)cc1
150 °C	CCC(=O)c1ccc(O)cc1

melting point	SMILES
161 °C	CCCC(/C=C1\C(=O)C2(C)CCC1C2(C)C)(/C=C1\C(=O)C2(C)CCC1C2(C)C)C(=O)OCC (configuration not stated)
102 °C	CC12CCCC1C1CCC3CC(=O)CCC3(C)C1CC2 (configuration not stated)
245 to 263 °C	NC(CO)(Cc1ccccc1)C(=O)O (racemic)
148 °C	c1cnc2nc[nH]c2c1
83.5 °C	ONc1ccccc1
118 °C	CC12CCC3C(CCC4CC=CCC43C)C1CC=C2CCc1ccccc1 (configuration not stated)
60 °C	CNC(=O)C(C)(C(C)C)C(C)C
95 °C	CN1CCc2c(c3ccccc3n2Cc2ccccc2)C1
80.5 °C	CC(C)OC(=O)C(C)(C)Oc1ccc(C(=O)c2ccc(Cl)cc2)cc1
93 °C	CS(=O)(=O)c1ccc(O)cc1
197 °C	Cn1ccc2ccc(C(=O)O)cc21
102 °C	CC(=O)Oc1cc(C)ccc1C1(C)CC(C)(C)c2ccc(C)cc2O1 (configuration not stated)
125 °C	O=C(O)C1=CCCc2ccccc21
90 °C	O=C(O)C1CCCCC1C(=O)OCCO (configuration not stated)
13 °C	O=C1CCCN1C1CCCCC1
79 °C	CSCS(=O)(=O)c1ccc(C)cc1
44 to 47 °C	CCOc1ccc(CC#N)cc1
88 to 90 °C	C=CC[Si](c1ccccc1)(c1ccccc1)c1ccccc1
68 to 70 °C	CN(N)c1ccc(C(F)(F)F)cc1[N+](=O)[O-]
88.6 °C	COc1c(C(C)(C)C(C)C)c2nc3ccccc3nc2c2ccccc12
-76 °C	CCCCC(C=O)CC (configuration not stated)
150 to 152 °C	COc1ccc(C(N)=S)cn1

melting point	SMILES
169 °C	O=C(CNc1cccc([N+](=O)[O-])c1)c1ccccc1
115 °C	C1CCC2C(C1)CCC1C3CCCCC3CCC21 (configuration not stated)
45.5 °C	CCN(CC)c1ccc(Cl)cc1
129 °C	COc1cc(OC)nc(Oc2cccc(Oc3nc(OC)cc(OC)n3)c2C(=O)ON=C(c2ccccc2)c2ccccc2)n1
102 °C	S=C(Nc1ccccc1)c1ccccc1
157 to 158 °C	Cc1ccc(Sc2ccc([N+](=O)[O-])cc2C=O)cc1
203 to 205 °C	COc1cc(C=CC(=O)O)cc(OC)c1O
8 °C	COCC(=O)c1ccccc1
222 °C	COC1=CC(C)C2CC3OC(=O)CC4C(C)=C(OC)C(=O)C(C2(C)C1=O)C34C (configuration not stated)
58 °C	CCCCCCCCCCCCCCCCCCS(=O)(=O)Cl
128 °C	Clc1ccc2c(c1)Cc1cc(Cl)ccc1-2
46 °C	Cc1ccc2c(c1)C(=O)C2
123 to 125 °C	O=[N+]([O-])c1ccc2ccccc2c1O
68 °C	COc1ccc(S(=O)(=O)Cl)cc1OC
184 °C	O=C(O)CCOc1ccc2c(c1)[nH]c1ccccc12
-70 °C	CCOCCO
42 to 45 °C	CCNCCS(=O)(=O)c1ccc(C)cc1
114 to 116 °C	COc1ccc(OCC(N)=O)cc1
161 to 171 °C	NNC(=O)CSc1ccccc1[N+](=O)[O-]
134 °C	NNc1ccc(Cl)cc1[N+](=O)[O-]
57 to 59 °C	O=Cc1ccc(Cn2cccn2)cc1
54 °C	C1CCCCCCCCCCCCC1

melting point	SMILES
239 to 241 °C	O=C(O)c1ccc(-c2nccs2)cc1
118 °C	Cc1ccc([N+](=O)[O-])cc1O
178 °C	CCOC(=O)c1[nH]c2cc3[nH]c(C(=O)OCC)c(OC(C)=O)c3cc2c1OC(C)=O
51 °C	CCn1c(C)nc2ccccc21
98 to 100 °C	CC(C)(C=NO)NO
175 °C	Cc1cc2c(o1)-c1c(oc3c(I)cc(I)cc13)CCC2(C)c1ccccc1 (configuration not stated)
71.2 °C	COC(=O)[C@H]1C[C@H](NC(=O)OC(C)(C)C)[C@@H](O)C1
223 to 227 °C	Cc1ccc(C(N)CC(=O)O)cc1 (configuration not stated)
196 °C	CCOC(=O)NC(N)=O
360 °C	COC(=O)NC=Cc1ccc(C=CNC(=O)OC)cc1
148 to 149 °C	COc1c(Cl)cc(Cl)c(OC)c1C(N)=O
116 to 118 °C	COc1ccccc1C1CCN(c2ccc(C=O)cc2[N+](=O)[O-])CC1
93 °C	COC(=O)C#Cc1cccc(C#CC(=O)OC)c1
188 °C	COc1ccc(/C=N/n2c(S)nnc2C(F)(F)F)cc1
190 to 198 °C	COC1C(O)C(O)C(O)C(O)C1O (single isomer, unassigned; (-))
237 to 240 °C	NC(Cc1ccc(F)c(F)c1)C(=O)O (racemic)
-113 °C	C#CC(=C)C
24 to 32 °C	CCCCCCCCCCC(=O)OCC(COC(=O)CCCCCCCCCC)OC(=O)CCCCCCCCCC
120 to 122 °C	NC(=O)c1sccc1N
-51.6 °C	CCCOC(=O)c1ccccc1

SMILES	melting point
C=CC(=O)NCO	74.5 °C
CNC(=O)Oc1cc(C)cc(C)c1	99 °C
CC(C)OC(=O)c1cc(-c2nn(C)c(C(F)(F)F)c2Br)c(F)cc1Cl	80 °C
O=S1(=O)OCCO1	99 °C
O=CNC(O)C(Cl)(Cl)Cl (configuration not stated)	120 °C
N=C(N)NC(=N)N	136 °C
CNC1(c2ccccc2Cl)CCCCC1=O (configuration not stated)	92.5 °C
O=C=Nc1ccc(Cl)cc1	30 °C
COc1ccc(C=O)cc1O	114 °C
COc1ccccc1-c1ccc(C=C2C(=O)NC(=S)NC2=O)o1	235 °C
O=C(Cl)OCc1ccc([N+](=O)[O-])cc1	33 °C
CCCCCC(C)Br (configuration not stated)	47 °C
Oc1ccc2ccc3cccc4ccc1c2c34	180 °C
c1ccc(NNc2ccccc2)cc1	131 °C
CC(=O)OC1CCC2C3CCC4CC(C(C)=O)=CCC4(C)C3CCC12C (configuration not stated)	115 to 140 °C
Clc1cc(Cl)c2c(c1)Oc1cc(Cl)c(Cl)cc1O2	194 °C
CN1CCN(c2cccc([N+](=O)[O-])c2)CC1	60 to 62 °C
C[C@]12CC[C@H]3[C@@H](CCC4CC(=O)CC[C@@]43C)C1=CCC2=O (some centres not stated)	151 °C
O=C(O)c1c(Cl)c(Cl)c(Cl)c(Cl)c1C(=O)O	98 °C
O=CC(Cl)(Cl)Cl	-57.5 °C
O=C1NC(=O)C(=Cc2ccc(-c3ccc(Br)cc3)o2)C(=O)N1	255 °C
CC(Cl)(Cl)C(=O)O	-5 °C
ICCCCCCI	9.5 °C
BrCC1CO1 (configuration not stated)	-40 °C

Source: a melting point compilation (Tetko et al.)
